Reference: patent CN110478361A, “一种安全性高的灯盏花乙素药物组合物及其制备方法” (KUNMING LONGJIN PHARMACEUTICAL CO Ltd, priority 2018, dated 2019)

Key:
[1] = tested on: reflux oesophagitis and gastritis (反流性食道炎以及抗胃炎); conditions: cited from earlier work
[2] = tested on: rat dementia caused by kainic acid (海人藻酸所致大鼠痴呆); conditions: male Wistar rats; cited from earlier work
[3] = tested on: rat dementia caused by β-amyloid (β-淀粉样蛋白致大鼠痴呆); conditions: male Wistar rats; cited from earlier work
[4] = Repeated-dose intravenous toxicity in SD rats, four weeks with four-week recovery; assay type: in vivo, rat; conditions: in vivo, iv; SD rat, i.v. once daily, 28 days, recovery 29 days; 200, 400, 600 mg/kg; injectable breviscapine made from Example 1; read-out: no observed adverse effect level (NOAEL)
[5] = tested on: SD rats (SD大鼠); test: as above; assay type: in vivo, rat; conditions: worked out from rat 28-day i.v. NOAEL
[6] = Repeated-dose intravenous toxicity in Beagle dogs, four weeks with four-week recovery; assay type: in vivo, dog; conditions: in vivo, iv; Beagle dog, i.v. once daily, 28 days, recovery 28 days; 25, 50, 100 mg/kg; injectable breviscapine made from Example 1; read-out: no observed adverse effect level (NOAEL)
[7] = tested on: Beagle dogs (Beagle犬); test: as above; assay type: in vivo, dog; conditions: worked out from dog 28-day i.v. NOAEL
[8] = Clarity test (compared with yellow-green No. 6 standard colour solution, Chinese Pharmacopoeia 2015, general chapter 0901, method 1); assay type: physicochemical; conditions: 0.02 mg per mL in 1% sodium hydrogencarbonate solution, inspected within 5 minutes
[9] = Single-dose intravenous toxicity in Beagle dogs; assay type: in vivo, dog; conditions: in vivo, iv; Beagle dog, single i.v., injectable breviscapine made from Example 1; 200, 400 mg/kg; 14 days observation; read-out: maximum tolerated dose (MTD)
[10] = tested on: Beagle dogs (Beagle犬); test: Single-dose intravenous toxicity in Beagle dogs; assay type: in vivo, dog; conditions: worked out from dog single i.v. MTD
[11] = Single-dose intravenous toxicity in SD rats; assay type: in vivo, rat; conditions: in vivo, iv; SD rat, single i.v., injectable breviscapine made from Example 1; 500, 750, 1000 mg/kg; 14 days observation; read-out: maximum tolerated dose (MTD)
[12] = tested on: SD rats (SD大鼠); test: Single-dose intravenous toxicity in SD rats; assay type: in vivo, rat; conditions: worked out from rat single i.v. MTD
[13] = Single-dose oral gavage toxicity in SD rats; assay type: in vivo, rat; conditions: in vivo; SD rat, single oral gavage, 5000 mg/kg; 14 days observation; read-out: maximum administered dose
[14] = tested on: SD rats (SD大鼠); test: Single-dose oral gavage toxicity in SD rats; assay type: in vivo, rat; conditions: worked out from rat single oral dose
[15] = in air; cited from earlier work
[16] = aglycone and active metabolite of scutellarin, compared with scutellarin; cited from earlier work
[17] = compared with apigenin and omeprazole

O=C(O)[C@H]1O[C@@H](Oc2cc(O)c3c(=O)cc(-c4ccc(O)cc4)oc3c2)[C@H](O)[C@@H](O)[C@@H]1O [5,4’-二羟基黄酮-7-O-β-D-葡萄糖醛酸]
anti-reflux-oesophagitis and anti-gastritis effect [1, 17]: 比芹菜素和奥美拉唑更有效
reduction of the extent of gastric lesions [1, 17]: 比芹菜素和奥美拉唑更能有效的减小胃损伤范围
MOA content produced by induced reflux oesophagitis ([1]; mouse, in vivo): 减少由诱导反流性食管炎而产生的MOA的含量
antioxidant activity ([1]; mouse, in vivo): 有抗氧化活性
glutathione (GSH) produced in acute oesophagitis ([1]; mouse, in vivo): 清除急性食管炎产生的谷胱甘肽(GSH)
effect on pathological changes of brain tissue [2]: 有一定改善作用
effect on pathological damage of cerebral cortex and hippocampus [3]: 可减轻β-淀粉样蛋白所致大鼠脑皮层及海马的病理损害
therapeutic effect on dementia [3]: 有一定的治疗作用

O=C(O)[C@H]1O[C@@H](Oc2cc3oc(-c4ccc(O)cc4)cc(=O)c3c(O)c2O)[C@H](O)[C@@H](O)[C@@H]1O [实施例1]
NOAEL at 672 h [4]: 200 mg/kg
equivalent human daily intake of the NOAEL [5]: 2000 mg
NOAEL at 672 h [6]: 25 mg/kg
equivalent human daily intake of the NOAEL [7]: 833.3 mg
clarity test conclusion [8]: 符合规定
MTD at 336 h [9]: 200 mg/kg
equivalent human daily intake of the MTD [10]: 6666 mg
MTD at 336 h [11]: 750 mg/kg
equivalent human daily intake of the MTD [12]: 7500 mg

O=C(O)[C@H]1O[C@@H](Oc2cc3oc(-c4ccc(O)cc4)cc(=O)c3c(O)c2O)[C@H](O)[C@@H](O)[C@@H]1O [实施例2]
MTD at 336 h [13]: 5000 mg/kg
equivalent human daily intake of the maximum administered dose [14]: 50 g

O=c1cc(-c2ccc(O)cc2)oc2cc(O)c(O)c(O)c12 [野黄芩素]
stability [15]: 在空气中易氧化变为醌类衍生物
related biological activity [16]: 更强相关生物活性
